Measurements as given in ChEMBL document CHEMBL3351512, “Studies on molecular properties prediction and histamine H3 receptor affinities of novel ligands with uracil-based motifs” (Eur J Med Chem, 2014).

Legend:
Histamine H3 receptor [1] = target: Histamine H3 receptor (Homo sapiens, UniProt Q9Y5N1); assay: Displacement of [3H]N-alpha-Methylhistamine from human recombinant H3 receptor expressed in HEK293 cells by competitive binding assay; type: cell-based
Histamine H3 receptor [2] = target: Histamine H3 receptor (Rattus norvegicus, UniProt Q9QYN8); assay: Binding affinity to rat H3 receptor
Sequence of Histamine H3 receptor (Rattus norvegicus, UniProt Q9QYN8) (Q9QYN8 whole entry): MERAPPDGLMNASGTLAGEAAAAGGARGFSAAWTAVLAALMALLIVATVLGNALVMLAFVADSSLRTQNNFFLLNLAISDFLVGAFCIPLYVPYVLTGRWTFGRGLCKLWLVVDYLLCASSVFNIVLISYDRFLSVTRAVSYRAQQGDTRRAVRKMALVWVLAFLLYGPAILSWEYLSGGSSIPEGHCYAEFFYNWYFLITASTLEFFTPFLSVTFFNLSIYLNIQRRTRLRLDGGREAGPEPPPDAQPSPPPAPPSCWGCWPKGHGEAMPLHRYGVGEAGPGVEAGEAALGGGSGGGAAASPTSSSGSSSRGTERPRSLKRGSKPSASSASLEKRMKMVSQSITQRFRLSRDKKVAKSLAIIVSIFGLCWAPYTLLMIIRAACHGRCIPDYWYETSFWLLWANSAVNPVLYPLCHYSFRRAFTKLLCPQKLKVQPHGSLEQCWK

Sequence of Histamine H3 receptor (Homo sapiens, UniProt Q9Y5N1) (Q9Y5N1 whole entry): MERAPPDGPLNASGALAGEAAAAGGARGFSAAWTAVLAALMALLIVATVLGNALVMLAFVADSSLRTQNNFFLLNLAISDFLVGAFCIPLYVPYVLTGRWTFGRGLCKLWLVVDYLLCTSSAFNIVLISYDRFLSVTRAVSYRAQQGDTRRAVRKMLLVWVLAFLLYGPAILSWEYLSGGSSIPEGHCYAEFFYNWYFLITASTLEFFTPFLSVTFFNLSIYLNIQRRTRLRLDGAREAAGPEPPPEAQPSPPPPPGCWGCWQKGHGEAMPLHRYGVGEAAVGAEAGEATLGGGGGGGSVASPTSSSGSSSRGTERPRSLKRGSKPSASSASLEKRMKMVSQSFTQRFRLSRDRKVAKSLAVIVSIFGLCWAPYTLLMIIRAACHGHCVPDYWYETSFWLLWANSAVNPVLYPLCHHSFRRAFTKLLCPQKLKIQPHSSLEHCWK

Question: For Cc1c[nH]c(=O)n(Cc2ccc(OCCCN3CCCCC3)cc2)c1=O, which Ki (Histamine H3 receptor [1]; read-out: pKi (converted)) is on record?
Answer: 0.0631 µM

Question: C[C@H]1CCCN1CCCOc1ccc(/C(CN2CCCCC2=O)=N/OC(C)(C)C)cc1 was tested. Which Ki (Histamine H3 receptor [2]) did it give?
Answer: < 0.1 µM

Question: Cc1cn(Cc2ccc(OCCCN3CCCCC3)cc2)c(=O)[nH]c1=O was tested. Which Ki (Histamine H3 receptor [1]; read-out: pKi (converted)) did it give?
Answer: 0.00708 µM

Question: How did the Ki (Histamine H3 receptor [1]; read-out: pKi (converted)) turn out when O=C(c1ccccc1)n1c(=O)ccn(Cc2ccc(OCCCN3CCCCC3)cc2)c1=O was run?
Answer: 0.00724 µM

Question: How did the Ki (Histamine H3 receptor [1]; read-out: pKi (converted)) turn out when O=c1ccn(Cc2ccc(OCCCN3CCCCC3)cc2)c(=O)[nH]1 was run?
Answer: 0.0129 µM

Question: O=c1cccnn1-c1ccc2nc(N3CC[C@@H](N4CCCCC4)C3)sc2c1 was tested. Which Ki (Histamine H3 receptor [1]; read-out: Ki) did it give?
Answer: < 0.025 µM

Question: Which Ki (Histamine H3 receptor [1]; read-out: pKi (converted)) does the source give for O=c1cc[nH]c(=O)n1Cc1ccc(OCCCN2CCCCC2)cc1 here?
Answer: 0.0288 µM

Question: O=C(c1ccccc1)n1c(=O)ccn(CCCN2CCCCC2)c1=O was tested. Which Ki (Histamine H3 receptor [1]; read-out: pKi (converted)) did it give?
Answer: 1.15 µM

Question: How did the Ki (Histamine H3 receptor [1]; read-out: pKi (converted)) turn out when O=c1ccn(CCCN2CCCCC2)c(=O)[nH]1 was run?
Answer: 7.08 µM

Question: Which IC50 (Histamine H3 receptor [1]) does the source give for CCN1CCc2nc(OC3CCN(C4CCC4)CC3)ncc2C1=O here?
Answer: ≤ 0.05 µM

Question: With Cc1cn(Cc2ccc(OCCCN3CCCCC3)cc2)c(=O)n(C(=O)c2ccccc2)c1=O as the compound, how does the Ki (Histamine H3 receptor [1]; read-out: pKi (converted)) read?
Answer: 0.0316 µM

Question: Which Ki (Histamine H3 receptor [1]; read-out: pKi (converted)) does the source give for Cc1c(C)n(Cc2ccc(OCCCN3CCCCC3)cc2)c(=O)n(C(=O)c2ccccc2)c1=O here?
Answer: 0.0347 µM

Question: For Cc1c(C)n(Cc2ccc(OCCCN3CCCCC3)cc2)c(=O)[nH]c1=O, which Ki (Histamine H3 receptor [1]; read-out: pKi (converted)) is on record?
Answer: 0.0178 µM

Question: With Cc1cn(C(=O)OC(C)(C)C)c(=O)n(Cc2ccc(OCCCN3CCCCC3)cc2)c1=O as the compound, how does the Ki (Histamine H3 receptor [1]; read-out: pKi (converted)) read?
Answer: 0.0468 µM

Question: For CC(C)N1CCCN(C(=O)C2CCN(c3ccc(C(F)(F)F)nc3)CC2)CC1, which Ki (Histamine H3 receptor [1]; read-out: pKi (converted)) is on record?
Answer: 0.000126 µM

Question: With Cc1c(C)n(C(=O)OC(C)(C)C)c(=O)n(Cc2ccc(OCCCN3CCCCC3)cc2)c1=O as the compound, how does the Ki (Histamine H3 receptor [1]; read-out: pKi (converted)) read?
Answer: 0.038 µM

Question: Which Ki (Histamine H3 receptor [1]; read-out: pKi (converted)) does the source give for CC(C)(C)OC(=O)n1ccc(=O)n(Cc2ccc(OCCCN3CCCCC3)cc2)c1=O here?
Answer: 0.0501 µM
